# According to US7792665B2, “Method for designing a compound based on the three dimensional structure of phosphoinositide dependent protein kinase 1 (PDK1)” (Medical Research Council, priority 2002, dated 2010):
# Substitutions are numbered along the chain they refer to. Entries after “also recorded” stand apart in the source; their conditions may differ.
# Tests used:
# PDK1 = target: T1, PDK1 (Homo sapiens, UniProt O15530); experiment: PDK1 protein kinase assay with PDK1tide substrate and [γ-32P]ATP; type: biochemical; settings: 1 μM inhibitor, 0.1 mM ATP, average of triplicate
# T1 sequence (O15530 1-556): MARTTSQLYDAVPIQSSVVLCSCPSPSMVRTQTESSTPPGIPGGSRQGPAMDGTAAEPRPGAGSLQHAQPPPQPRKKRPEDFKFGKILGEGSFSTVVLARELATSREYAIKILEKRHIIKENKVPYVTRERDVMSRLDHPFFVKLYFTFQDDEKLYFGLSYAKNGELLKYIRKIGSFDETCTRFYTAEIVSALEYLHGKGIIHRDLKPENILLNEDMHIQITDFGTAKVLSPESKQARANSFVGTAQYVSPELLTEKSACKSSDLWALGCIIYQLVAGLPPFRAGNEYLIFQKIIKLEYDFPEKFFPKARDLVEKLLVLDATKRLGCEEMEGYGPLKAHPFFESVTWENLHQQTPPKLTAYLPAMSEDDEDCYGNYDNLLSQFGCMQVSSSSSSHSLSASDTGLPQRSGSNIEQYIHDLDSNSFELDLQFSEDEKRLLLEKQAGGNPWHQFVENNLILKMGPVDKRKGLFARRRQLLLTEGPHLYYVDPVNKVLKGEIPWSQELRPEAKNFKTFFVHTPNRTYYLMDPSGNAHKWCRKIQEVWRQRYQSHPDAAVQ
# Procedure: (§1) Other protein kinases employed in Table 5, were assayed as described previously.
# A structure-based sequence alignment of known kinase structures was obtained from, which was used to validate the sequence-based sequence alignment (Table 5).
# CHK1 = target: T2, CHK1 (Homo sapiens, UniProt O14757); experiment: Kinase panel assay, CHK1; type: biochemical; settings: 1 μM inhibitor, 0.1 mM ATP, average of triplicate
# T2 sequence (O14757 1-476): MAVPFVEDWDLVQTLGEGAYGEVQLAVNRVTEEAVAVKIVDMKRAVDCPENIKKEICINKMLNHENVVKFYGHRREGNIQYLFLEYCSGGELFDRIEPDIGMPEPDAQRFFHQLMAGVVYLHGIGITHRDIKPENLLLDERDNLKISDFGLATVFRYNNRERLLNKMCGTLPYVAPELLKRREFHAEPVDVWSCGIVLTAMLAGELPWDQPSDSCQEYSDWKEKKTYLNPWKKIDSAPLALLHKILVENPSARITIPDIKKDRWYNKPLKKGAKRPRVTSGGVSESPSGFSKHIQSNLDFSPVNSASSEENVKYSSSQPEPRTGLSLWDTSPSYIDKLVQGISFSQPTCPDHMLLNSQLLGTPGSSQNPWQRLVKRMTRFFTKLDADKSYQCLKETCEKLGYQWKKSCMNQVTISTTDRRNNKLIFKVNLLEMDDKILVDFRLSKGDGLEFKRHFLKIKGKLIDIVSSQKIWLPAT
# AMPK = experiment: Kinase panel assay, AMPK; type: biochemical; settings: 1 μM inhibitor, 0.1 mM ATP, average of triplicate
# Procedure: as §1
# PKBΔPH = PKBΔPH (Homo sapiens, UniProt P31749); experiment: biochemical; settings: read-out: percentage of kinase activity compared to control incubations, PKBΔPH
# Procedure: as §1
# ROCK-II = ROCK-II (Homo sapiens, UniProt O75116); experiment: Kinase panel assay, ROCK-II; type: biochemical; settings: 1 μM inhibitor, 0.1 mM ATP, average of triplicate
# MSK1 = MSK1 (Homo sapiens, UniProt O75582); experiment: Kinase panel assay, MSK1; type: biochemical; settings: 1 μM inhibitor, 0.1 mM ATP, average of triplicate
# MKK1 = MKK1 (Homo sapiens, UniProt Q02750); experiment: Kinase panel assay, MKK1; type: biochemical; settings: 1 μM inhibitor, 0.1 mM ATP, average of triplicate
# CSK = CSK (Homo sapiens, UniProt P41240); experiment: Kinase panel assay, CSK; type: biochemical; settings: 1 μM inhibitor, 0.1 mM ATP, average of triplicate
# SAPK4/p38δ = SAPK4/p38δ (Homo sapiens, UniProt O15264); experiment: Kinase panel assay, SAPK4/p38δ; type: biochemical; settings: 1 μM inhibitor, 0.1 mM ATP, average of triplicate
# PRAK = PRAK (Homo sapiens, UniProt Q8IW41); experiment: Kinase panel assay, PRAK; type: biochemical; settings: 1 μM inhibitor, 0.1 mM ATP, average of triplicate
# MAPKAP-K1a = MAPKAP-K1a (Homo sapiens, UniProt Q15418); experiment: Kinase panel assay, MAPKAP-K1a; type: biochemical; settings: 1 μM inhibitor, 0.1 mM ATP, average of triplicate
# SGK1 = SGK1 (Homo sapiens, UniProt O00141); experiment: Kinase panel assay, SGK1; type: biochemical; settings: 1 μM inhibitor, 0.1 mM ATP, average of triplicate
# JNKSAPK1c = JNKSAPK1c (Homo sapiens, UniProt P45983); experiment: Kinase panel assay, JNKSAPK1c; type: biochemical; settings: 1 μM inhibitor, 0.1 mM ATP, average of triplicate
# SAPK2α/p38 = SAPK2α/p38 (Homo sapiens, UniProt Q16539); experiment: Kinase panel assay, SAPK2α/p38; type: biochemical; settings: 1 μM inhibitor, 0.1 mM ATP, average of triplicate
# SAPK2β/p38β2 = SAPK2β/p38β2 (Homo sapiens, UniProt Q15759); experiment: Kinase panel assay, SAPK2β/p38β2; type: biochemical; settings: 1 μM inhibitor, 0.1 mM ATP, average of triplicate
# CK2 = CK2 (Homo sapiens, UniProt P68400); experiment: Kinase panel assay, CK2; type: biochemical; settings: 1 μM inhibitor, 0.1 mM ATP, average of triplicate
# CK1 = experiment: Kinase panel assay, CK1; type: biochemical; settings: 1 μM inhibitor, 0.1 mM ATP, average of triplicate
# NEK6 = NEK6 (Homo sapiens, UniProt Q9HC98); experiment: Kinase panel assay, NEK6; type: biochemical; settings: 1 μM inhibitor, 0.1 mM ATP, average of triplicate
# [1] = target: S6K-pHM, phosphopeptide comprising the hydrophobic motif of S6K1; experiment: SPR (BiaCore), against wild type PDK1
# [2] = target: S6K-pHM, phosphopeptide comprising the hydrophobic motif of S6K1; experiment: SPR (BiaCore), rounded value
# [3] = target: S6K-pHM, phosphopeptide comprising the hydrophobic motif of S6K1; experiment: SPR (BiaCore 3000), biotinylated S6K-pHM on SA chip, GST-PDK1 injected at 2-2150 nM, steady state, apparent Kd
# PDK1[K76A] = target: T3, PDK1[K76A] (Homo sapiens, UniProt O15530, K76A); experiment: PDK1 catalytic activity towards T308tide, activation by peptides, PDK1[K76A]; type: biochemical; settings: high peptide concentrations
# T3 construct: made in house; host or cells: human embryonic kidney 293 cells (pEBG2T vector)
# T3 sequence (O15530 1-556 K76A): T1 sequence (O15530 1-556) with K76A
# Procedure: (§2) C. Activation of the indicated forms of PDK1 by 56K-pHM and S6K-HM. PDK1 activity was measured using the peptide substrate (T308tide) in the presence of the indicated concentrations of 56K-pHM (closed circles) and S6K-HM (open circles) as described in the methods. Assays were performed in triplicate and similar results obtained in 2 separate experiments. The results are the average—SD for a single experiment.
# The ability of wild type and mutant PDK1 to phosphorylate the synthetic peptide T308tide ([…] ([Biondi et al., 2000]) (SEQ ID NO:108) was carried out in 30 μl assays containing 100 ng of wild type or mutant PDK1, 50 mM Tris/HCl pH 7.5, 0.1% 13-mercaptoethanol, 10 mM MgCl2, 100 μM [32γ P]ATP (200 cpm/pmol), 0.5 μM microcystin-LR, 1 mM T308tide in the presence or absence of the indicated concentrations of the 56K-pHM peptide ([…](P)YVAPSV) (SEQ ID NO:104) or 56K-HM. peptide ([…]) (SEQ ID NO:105). After incubation for 10 min at 30° C., 25 μl of the resultant mixture was spotted into P81 phosphocellulose paper (2×2 cm) and the papers washed and analysed as described previously for assays of MAP kinase. Control assays were carried out in parallel in which either PDK1, or peptide substrate were omitted; these values were always less than 5% of the activity measured in the presence of these reagents. […]
# PDK1[R131A] = target: T4, PDK1[R131A] (Homo sapiens, UniProt O15530, R131A); experiment: PDK1 catalytic activity towards T308tide, activation by peptides, PDK1[R131A]; type: biochemical; settings: high peptide concentrations
# T4 construct: GST (N); made in house; host or cells: human embryonic kidney 293 cells (pEBG2T vector)
# T4 sequence (O15530 1-556 R131A): T1 sequence (O15530 1-556) with R131A
# Procedure: as §2
# The ability of wild type and mutant PDK1 to phosphorylate the synthetic peptide T308tide ([…] ([Biondi et al., 2000]) (SEQ ID NO:108) was carried out in 30 μl assays containing 100 ng of wild type or mutant PDK1, 50 mM Tris/HCl pH 7.5, 0.1% 13-mercaptoethanol, 10 mM MgCl2, 100 μM [32γ P]ATP (200 cpm/pmol), 0.5 μM microcystin-LR, 1 mM T308tide in the presence or absence of the indicated concentrations of the 56K-pHM peptide ([…](P)YVAPSV) (SEQ ID NO:104) or 56K-HM. peptide ([…]) (SEQ ID NO:105). After incubation for 10 min at 30° C., 25 μl of the resultant mixture was spotted into P81 phosphocellulose paper (2×2 cm) and the papers washed and analysed as described previously for assays of MAP kinase. Control assays were carried out in parallel in which either PDK1, or peptide substrate were omitted; these values were always less than 5% of the activity measured in the presence of these reagents. One Unit of PDK1 activity was defined as that amount required to catalyse the phosphorylation of 1 nmol of the T308tide in 1 min.
# wild type PDK1 = target: T5, wild type PDK1 (Homo sapiens, UniProt O15530); experiment: Surface plasmon resonance (BiaCore) binding of hydrophobic motif peptides, wild type PDK1; parameters: made in house; host or cells: human embryonic kidney 293 cells (pEBG2T vector); settings: surface plasmon resonance
# T5 sequence (O15530 1-556): T1 sequence (O15530 1-556)
# Procedure: Binding and activation of wild type and mutant forms of PDK1 to a phosphopeptide derived from the hydrophobic motif of S6K1. The binding of the wild type (wt) PDK1 and indicated mutants to a phosphopeptide comprising the hydrophobic motif of S6K1 (S6K-pHM: […]*YVAPSV, where T* indicates phospho-threonine, SEQ ID NO:104) was analysed by surface plasmon resonance as described in the Materials and Methods.
# A. The sensor chip SA was coated with 12RUs of the biotinylated S6K-pHM peptide and the binding was analysed following injection of 270 nM wild type PDK1, PDK1 [T148A] and PDK1 [K76A]. […] (data not shown).
# B. As in A. except that binding was analysed over a range of PDK1 concentrations (2-2150 nM). The response level at the steady state binding is plotted versus the log of the PDK1 concentration. The estimated Kd was obtained by fitting the data to a sigmoid curve using Kaleidagraph software.
# Binding was analysed in a BiaCore 3000 system (BiaCore AB, Stevenage, UK). Biotinylated S6K-pHM (Biotin-C12-[…](P)YVAPSV) (SEQ ID NO:104) or the non-phosphorylated form of this peptide S6K-HM was bound to an streptavidin-coated Sensor chip (SA) (12 response units, RU). 30 μl of wild type or the indicated mutant GST-PDK1 were injected at a flow rate of 30 μl/min, in buffer HBS-P (10 mM HEPES pH 7.4, 0.15M NaCl, 0.005% (by vol) polysorbate-20) supplemented with 1 mM DTT. Specific interactions between 56K-pHM and PDK1 proteins were obtained between the concentration range of 2-2150 nM PDK1. Steady state binding was determined at each concentration. Dissociation of PDK1 from the phospho-peptide was monitored over a 1 min period. Regeneration of the sensor chip surface was performed with 1{tilde over (0)} μl injections of 0.05% SDS. […] (RUmax=435). For all PDK1 construct tested, the off rates for S6Kp-HM were high in comparison to those of PIFtide binding with the time taken for 50% dissociation to occur for 56K-pHM is 30s compared to 1000s for PIFtide.
# Sequence of MSK1 (O75582 whole entry): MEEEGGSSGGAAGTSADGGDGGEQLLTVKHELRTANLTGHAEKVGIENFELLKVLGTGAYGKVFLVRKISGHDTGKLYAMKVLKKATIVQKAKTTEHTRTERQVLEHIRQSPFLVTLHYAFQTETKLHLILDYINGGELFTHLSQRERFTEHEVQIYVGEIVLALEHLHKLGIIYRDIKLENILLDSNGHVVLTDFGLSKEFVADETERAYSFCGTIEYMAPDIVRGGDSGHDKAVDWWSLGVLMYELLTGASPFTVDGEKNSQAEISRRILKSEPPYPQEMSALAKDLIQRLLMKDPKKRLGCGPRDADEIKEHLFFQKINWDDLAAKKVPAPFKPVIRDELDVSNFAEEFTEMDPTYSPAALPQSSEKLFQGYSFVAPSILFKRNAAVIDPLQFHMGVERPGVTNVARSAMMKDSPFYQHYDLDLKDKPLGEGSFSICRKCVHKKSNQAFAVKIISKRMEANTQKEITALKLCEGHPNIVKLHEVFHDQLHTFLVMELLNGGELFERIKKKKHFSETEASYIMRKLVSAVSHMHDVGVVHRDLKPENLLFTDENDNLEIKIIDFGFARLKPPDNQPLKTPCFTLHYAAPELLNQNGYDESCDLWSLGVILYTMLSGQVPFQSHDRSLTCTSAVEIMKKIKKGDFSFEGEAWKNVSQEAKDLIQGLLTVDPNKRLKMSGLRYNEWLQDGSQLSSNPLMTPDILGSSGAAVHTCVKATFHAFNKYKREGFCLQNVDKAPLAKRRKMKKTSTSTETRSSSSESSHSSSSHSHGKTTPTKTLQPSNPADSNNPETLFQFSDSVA
# Sequence of MAPKAP-K1a (Q15418 whole entry, species assumed): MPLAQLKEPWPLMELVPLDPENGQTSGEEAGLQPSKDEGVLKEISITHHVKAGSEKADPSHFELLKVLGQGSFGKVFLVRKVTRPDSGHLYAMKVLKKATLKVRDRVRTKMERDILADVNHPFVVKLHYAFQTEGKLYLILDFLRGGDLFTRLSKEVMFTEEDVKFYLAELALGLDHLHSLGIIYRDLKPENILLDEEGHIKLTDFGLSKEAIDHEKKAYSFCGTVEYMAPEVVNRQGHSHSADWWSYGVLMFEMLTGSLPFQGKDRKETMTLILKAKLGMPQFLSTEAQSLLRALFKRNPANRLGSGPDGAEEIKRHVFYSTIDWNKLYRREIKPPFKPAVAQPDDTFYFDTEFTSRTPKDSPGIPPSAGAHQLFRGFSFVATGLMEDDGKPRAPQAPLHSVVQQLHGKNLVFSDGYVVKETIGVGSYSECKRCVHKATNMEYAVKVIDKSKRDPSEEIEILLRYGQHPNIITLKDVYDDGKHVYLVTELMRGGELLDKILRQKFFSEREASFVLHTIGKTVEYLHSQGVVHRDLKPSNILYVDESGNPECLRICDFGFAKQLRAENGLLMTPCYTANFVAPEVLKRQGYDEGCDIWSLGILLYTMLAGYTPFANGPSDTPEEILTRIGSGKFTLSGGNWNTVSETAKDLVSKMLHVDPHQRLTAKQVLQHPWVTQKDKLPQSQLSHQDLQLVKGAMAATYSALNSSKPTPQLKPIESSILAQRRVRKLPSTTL
# Sequence of MKK1 (Q02750 whole entry, species assumed): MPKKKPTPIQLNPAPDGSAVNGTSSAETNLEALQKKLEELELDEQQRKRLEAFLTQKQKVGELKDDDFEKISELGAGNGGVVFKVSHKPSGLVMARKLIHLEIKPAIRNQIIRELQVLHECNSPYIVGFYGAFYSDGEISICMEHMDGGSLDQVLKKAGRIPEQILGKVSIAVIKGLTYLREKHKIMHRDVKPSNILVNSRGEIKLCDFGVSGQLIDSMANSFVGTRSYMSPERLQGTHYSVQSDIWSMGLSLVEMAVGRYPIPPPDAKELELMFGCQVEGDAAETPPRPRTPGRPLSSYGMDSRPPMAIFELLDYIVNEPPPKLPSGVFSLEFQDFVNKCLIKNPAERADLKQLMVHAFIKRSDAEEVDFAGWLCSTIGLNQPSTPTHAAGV
# Sequence of SGK1 (O00141 whole entry): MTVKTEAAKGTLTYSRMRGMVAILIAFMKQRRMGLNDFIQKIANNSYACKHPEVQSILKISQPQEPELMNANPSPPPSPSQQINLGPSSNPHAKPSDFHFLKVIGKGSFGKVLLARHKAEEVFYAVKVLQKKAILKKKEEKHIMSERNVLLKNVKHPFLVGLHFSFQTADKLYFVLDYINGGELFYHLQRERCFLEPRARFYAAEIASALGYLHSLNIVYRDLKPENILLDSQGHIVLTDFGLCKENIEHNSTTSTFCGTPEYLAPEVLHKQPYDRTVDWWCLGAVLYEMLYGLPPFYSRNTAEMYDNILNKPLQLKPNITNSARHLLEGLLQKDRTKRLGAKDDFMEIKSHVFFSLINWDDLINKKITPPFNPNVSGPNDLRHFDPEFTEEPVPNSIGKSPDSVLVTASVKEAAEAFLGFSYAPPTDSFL
# Sequence of ROCK-II (O75116 whole entry, species assumed): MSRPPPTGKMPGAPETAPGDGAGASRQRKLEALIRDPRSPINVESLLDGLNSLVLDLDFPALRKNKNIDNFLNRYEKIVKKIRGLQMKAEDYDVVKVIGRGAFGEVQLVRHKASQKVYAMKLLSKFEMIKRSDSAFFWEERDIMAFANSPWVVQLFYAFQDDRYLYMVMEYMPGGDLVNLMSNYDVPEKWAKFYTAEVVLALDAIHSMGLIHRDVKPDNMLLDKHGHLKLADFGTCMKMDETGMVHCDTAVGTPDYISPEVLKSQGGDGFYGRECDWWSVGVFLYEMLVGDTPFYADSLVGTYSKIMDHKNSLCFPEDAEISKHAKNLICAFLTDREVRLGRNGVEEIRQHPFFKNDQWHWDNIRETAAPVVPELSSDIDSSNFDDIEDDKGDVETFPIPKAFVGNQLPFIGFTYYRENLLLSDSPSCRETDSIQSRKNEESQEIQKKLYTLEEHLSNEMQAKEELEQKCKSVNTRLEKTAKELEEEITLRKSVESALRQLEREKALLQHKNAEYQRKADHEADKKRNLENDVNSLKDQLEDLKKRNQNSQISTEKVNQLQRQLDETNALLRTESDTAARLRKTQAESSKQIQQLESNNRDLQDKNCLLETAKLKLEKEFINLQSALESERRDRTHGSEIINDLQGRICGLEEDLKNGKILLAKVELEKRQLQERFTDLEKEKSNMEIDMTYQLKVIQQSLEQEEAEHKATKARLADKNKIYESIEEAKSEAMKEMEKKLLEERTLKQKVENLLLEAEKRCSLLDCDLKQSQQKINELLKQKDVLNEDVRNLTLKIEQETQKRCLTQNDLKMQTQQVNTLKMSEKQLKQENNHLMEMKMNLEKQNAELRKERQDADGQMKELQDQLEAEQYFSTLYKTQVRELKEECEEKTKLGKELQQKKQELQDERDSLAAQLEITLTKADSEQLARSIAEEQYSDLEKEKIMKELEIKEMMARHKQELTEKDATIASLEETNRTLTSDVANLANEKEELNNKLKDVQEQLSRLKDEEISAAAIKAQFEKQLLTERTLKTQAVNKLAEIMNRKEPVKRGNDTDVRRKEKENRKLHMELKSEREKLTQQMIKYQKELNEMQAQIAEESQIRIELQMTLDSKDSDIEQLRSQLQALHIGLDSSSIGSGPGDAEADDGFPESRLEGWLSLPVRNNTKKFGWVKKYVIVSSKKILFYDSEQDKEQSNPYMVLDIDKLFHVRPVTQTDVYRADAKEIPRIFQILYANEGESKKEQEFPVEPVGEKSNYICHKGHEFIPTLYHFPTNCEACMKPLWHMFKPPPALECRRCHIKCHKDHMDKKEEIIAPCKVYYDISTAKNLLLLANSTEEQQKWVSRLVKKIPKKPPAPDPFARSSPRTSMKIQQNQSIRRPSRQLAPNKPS
# Sequence of PKBΔPH (P31749 118-480 limits assumed, stated change not applied): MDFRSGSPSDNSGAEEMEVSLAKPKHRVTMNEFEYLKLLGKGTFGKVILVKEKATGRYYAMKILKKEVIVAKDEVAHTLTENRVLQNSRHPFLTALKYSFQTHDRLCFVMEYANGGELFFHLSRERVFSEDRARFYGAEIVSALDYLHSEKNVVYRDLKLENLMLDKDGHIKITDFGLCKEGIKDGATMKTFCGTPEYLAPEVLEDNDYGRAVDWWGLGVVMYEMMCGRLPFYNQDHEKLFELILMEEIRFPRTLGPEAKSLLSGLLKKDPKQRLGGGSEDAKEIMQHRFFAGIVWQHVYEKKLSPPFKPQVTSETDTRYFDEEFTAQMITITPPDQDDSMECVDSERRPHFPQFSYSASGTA
# Sequence of NEK6 (Q9HC98 whole entry, species assumed): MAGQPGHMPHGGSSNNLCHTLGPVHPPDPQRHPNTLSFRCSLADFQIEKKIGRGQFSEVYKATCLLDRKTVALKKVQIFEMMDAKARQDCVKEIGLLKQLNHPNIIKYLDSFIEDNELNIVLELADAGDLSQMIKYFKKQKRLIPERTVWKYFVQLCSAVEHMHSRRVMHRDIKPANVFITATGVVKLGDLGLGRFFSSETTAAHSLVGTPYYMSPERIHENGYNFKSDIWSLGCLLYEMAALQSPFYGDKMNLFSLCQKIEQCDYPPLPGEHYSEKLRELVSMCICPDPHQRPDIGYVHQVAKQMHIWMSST
# Sequence of SAPK2β/p38β2 (Q15759 whole entry): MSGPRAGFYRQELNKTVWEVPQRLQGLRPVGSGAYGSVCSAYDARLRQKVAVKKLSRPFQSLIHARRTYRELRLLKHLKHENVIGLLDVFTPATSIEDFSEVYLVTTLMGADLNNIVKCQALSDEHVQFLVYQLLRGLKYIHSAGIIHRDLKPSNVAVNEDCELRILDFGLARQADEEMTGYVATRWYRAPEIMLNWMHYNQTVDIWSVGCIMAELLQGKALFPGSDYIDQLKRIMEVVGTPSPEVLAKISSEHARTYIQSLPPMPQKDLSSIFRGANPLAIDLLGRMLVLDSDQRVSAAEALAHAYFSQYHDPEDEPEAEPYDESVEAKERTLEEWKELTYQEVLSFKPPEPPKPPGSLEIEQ
molecule,measurement,setting,value
"CN[C@@H]1C[C@H]2O[C@@](C)([C@@H]1OC)n1c3ccccc3c3c4c(c5c6ccccc6n2c5c31)C(=O)NC4 [STO, staurosporine]","percentage of kinase activity compared to control incubations, PDK1",PDK1,5 ± 1%
same,"percentage of kinase activity compared to control incubations, CHK1",CHK1,3 ± 1%
same,"percentage of kinase activity compared to control incubations, AMPK",AMPK,0 ± 0%
same,remaining activity at 1 µM,PKBΔPH,8 ± 2%
same,"percentage of kinase activity compared to control incubations, ROCK-II",ROCK-II,9 ± 5%
same,"percentage of kinase activity compared to control incubations, MSK1",MSK1,1 ± 0%
same,"percentage of kinase activity compared to control incubations, MSK1",MSK1; listed as staurosporine,abolished
same,"percentage of kinase activity compared to control incubations, MKK1",MKK1,5 ± 8%
same,"percentage of kinase activity compared to control incubations, CSK",CSK,25 ± 8%
same,"percentage of kinase activity compared to control incubations, SAPK4/p38δ",SAPK4/p38δ,40 ± 5%
same,"percentage of kinase activity compared to control incubations, PRAK",PRAK,48 ± 1%
same,"percentage of kinase activity compared to control incubations, MAPKAP-K1a",MAPKAP-K1a,18 ± 10%
same,"percentage of kinase activity compared to control incubations, SGK1",SGK1,51 ± 4%
same,"percentage of kinase activity compared to control incubations, JNKSAPK1c",JNKSAPK1c,91 ± 3%
same,"percentage of kinase activity compared to control incubations, SAPK2α/p38",SAPK2α/p38,76 ± 4%
same,"percentage of kinase activity compared to control incubations, SAPK2β/p38β2",SAPK2β/p38β2,84 ± 11%
same,"percentage of kinase activity compared to control incubations, CK2",CK2,95 ± 4%
same,"percentage of kinase activity compared to control incubations, CK1",CK1,95 ± 11%
same,"percentage of kinase activity compared to control incubations, NEK6",NEK6,109 ± 2%
GST-PDK1[K76A] (from UniProt O15530 1-556) (enzyme),fold lower affinity than wild type PDK1,[1],3 fold
same,Kd,[2],1700 nM
same,Kd,[3],1740 nM
S6K-HM: non-phosphorylated S6K-HM peptide (SESANQVFLGFTYVAPSV),activation of PDK1[K76A] by non-phosphorylated peptide,PDK1[K76A],to a similar extent as wild type PDK1
same,activation of PDK1[R131A] by non-phosphorylated peptide,PDK1[R131A],to a similar extent as wild type PDK1
same,binding of wild type PDK1 to peptide,wild type PDK1,No detectable binding; also recorded: not detectably
